# Assay results from patent US9695155B2, “Herbicidal substituted pyrimidinyloxy benzene compounds” (E. I. DU PONT DE NEMOURS AND COMPANY, priority 2013, dated 2017).
# Tests used:
# blackgrass = assay: Test C preemergence; assay type: in vivo, Alopecurus myosuroides; conditions: for Blackgrass plant response rating: preemergence; for Plant response rating, Blackgrass: Preemergence, 31 g ai/ha, scale 0 to 100, 0 no effect, 100 complete control
# Text: (§1) Seeds of plant species selected from blackgrass (Alopecurus myosuroides), Italian ryegrass (Lolium multiflorum), wheat, winter (winter wheat, Triticum aestivum), galium (catchweed bedstraw, Galium aparine), corn (Zea mays), large (Lg) crabgrass (Digitaria sanguinalis), giant foxtail (Setaria faberii), johnsongrass (Sorghum halepense), lambsquarters (Chenopodium album), morningglory (Ipomoea coccinea), yellow nutsedge (Cyperus esculentus), pigweed (Amaranthus retroflexus), ragweed (common ragweed, Ambrosia elatior), soybean (Glycine max), barnyardgrass (Echinochloa crus-galli), oilseed rape (Brassica napus), waterhemp (common waterhemp, Amaranthus rudis), kochia (Kochia scoparia), wild oat (Avena fatua), surinam grass (Brachiaria decumbens), foxtail, green (green foxtail, Setaria viridis), goosegrass (Eleusine indica), bromegrass, downy (downy bromegrass, Bromus tectorum), nightshade (eastern black nightshade, Solanum ptycanthum), cocklebur (common cocklebur, Xanthium strumarium), cupgrass, woolly (woolly cupgrass, Eriochloa villosa), bermudagrass (Cynodon dactylon), sunflower, (common oilseed sunflower, Helianthus annuus), Russian thistle (Salsola kali), and velvetleaf (Abutilon theophrasti) were planted into a blend of loam soil and sand and treated preemergence with test chemicals formulated in a non-phytotoxic solvent mixture which included a surfactant.
# (§2) At the same time, plants selected from these crop and weed species and also barley, winter (winter barley, Hordeum vulgare), windgrass (Apera spica-venti), chickweed (common chickweed, Stellaria media), deadnettle (henbit deadnettle, Lamium amplexicaule), and canarygrass (littleseed canarygrass, Phalaris minor) were planted in pots containing Redi-Earth® planting medium (Scotts Company, 14111 Scottslawn Road, Marysville, Ohio 43041) comprising spaghnum peat moss, vermiculite, wetting agent and starter nutrients and treated with postemergence applications of test chemicals formulated in the same manner. Plants ranged in height from 2 to 18 cm (1- to 4-leaf stage) for postemergence treatments. Treated plants and controls were maintained in a greenhouse for 13 to 15 days, after which time all species were compared to controls and visually evaluated. Plant response ratings, summarized in Table C, are based on a scale of 0 to 100 where 0 is no effect and 100 is complete control. A dash (-) response means no test result.
# Italian ryegrass [1] = assay: Test C preemergence; assay type: in vivo, Lolium multiflorum; conditions: for Ryegrass, Italian plant response rating: preemergence
# Text: as §1, §2
# corn = assay: Test C preemergence; assay type: in vivo, Zea mays; conditions: for Corn plant response rating: preemergence; for Plant response rating, Corn: Preemergence, 31 g ai/ha, scale 0 to 100, 0 no effect, 100 complete control
# Text: as §1, §2
# large (Lg) crabgrass = assay: Test C preemergence; assay type: in vivo, Digitaria sanguinalis; conditions: for Crabgrass, Large plant response rating: preemergence; for Plant response rating, Crabgrass, Large: Preemergence, 31 g ai/ha, scale 0 to 100, 0 no effect, 100 complete control
# Text: as §1, §2
# giant foxtail = assay: Test C preemergence; assay type: in vivo, Setaria faberii; conditions: for Foxtail, Giant plant response rating: preemergence; for Plant response rating, Foxtail, Giant: Preemergence, 31 g ai/ha, scale 0 to 100, 0 no effect, 100 complete control
# Text: as §1, §2
# lambsquarters = assay: Test C preemergence; assay type: in vivo, Chenopodium album; conditions: for Lambsquarters plant response rating: preemergence
# Text: as §1, §2
# morningglory = assay: Test C preemergence; assay type: in vivo, Ipomoea coccinea; conditions: for Morningglory plant response rating: preemergence
# Text: as §1, §2
# yellow nutsedge = assay: Test C preemergence; assay type: in vivo, Cyperus esculentus; conditions: for Nutsedge, Yellow plant response rating: preemergence
# Text: as §1, §2
# pigweed = assay: Test C preemergence; assay type: in vivo, Amaranthus retroflexus; conditions: for Pigweed plant response rating: preemergence
# Text: as §1, §2
# ragweed [2] = assay: Test C preemergence; assay type: in vivo, Ambrosia elatior; conditions: for Ragweed plant response rating: preemergence
# Text: as §1, §2
# soybean = assay: Test C preemergence; assay type: in vivo, Glycine max; conditions: for Soybean plant response rating: preemergence
# Text: as §1, §2
# barnyardgrass = assay: Test C preemergence; assay type: in vivo, Echinochloa crus-galli; conditions: for Barnyardgrass plant response rating: preemergence; for Plant response rating, Barnyardgrass: Preemergence, 31 g ai/ha, scale 0 to 100, 0 no effect, 100 complete control
# Text: as §1, §2
# oilseed rape = assay: Test C preemergence; assay type: in vivo, Brassica napus; conditions: for Oilseed Rape plant response rating: preemergence
# Text: as §1, §2
# velvetleaf = assay: Test C preemergence; assay type: in vivo, Abutilon theophrasti; conditions: for Velvetleaf plant response rating: preemergence
# Text: as §1, §2
# ragweed [3] = assay: Test A preemergence; assay type: in vivo, Ambrosia elatior
# In short: (§3)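 Compounds in non-phytotoxic solvent with surfactant applied as soil spray preemergence, or postemergence to plants 2-10 cm at one- to two-leaf stage, in loam/sand. After approximately 10 days in greenhouse, injury rated visually versus untreated controls, 0 (no effect) to 100 (complete control).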
# ragweed [4] = assay: Test A postemergence; assay type: in vivo, Ambrosia elatior; conditions: 0 to 100 scale, 0 no effect, 100 complete control
# In short: as §3
# Italian ryegrass [5] = assay: Test A postemergence; assay type: in vivo, Lolium multiflorum; conditions: 0 to 100 scale, 0 no effect, 100 complete control
# In short: as §3
# galium = assay: Test A postemergence; assay type: in vivo, Galium aparine; conditions: 0 to 100 scale, 0 no effect, 100 complete control
# In short: as §3
# [6] = 16 g ai/ha, scale 0 to 100 (0 no effect, 100 complete control)
# [7] = 62 g ai/ha, scale 0 (no effect) to 100 (complete control)
# [8] = 125 g ai/ha, scale 0 (no effect) to 100 (complete control)
# [9] = Preemergence, 31 g ai/ha, scale 0 to 100, 0 no effect, 100 complete control
structure (smiles),measurement,setting,value
FC(F)c1cccc(Oc2ncc(Cl)cn2)c1-n1cc(C(F)(F)F)cn1 [Compound 170],Blackgrass plant response rating,blackgrass; [6],0
same,Blackgrass plant response rating,blackgrass; [7],90
same,Blackgrass plant response rating,blackgrass; [8],90
same,"Plant response rating, Blackgrass",blackgrass,80
same,"Ryegrass, Italian plant response rating",Italian ryegrass [1]; [6],5
same,"Ryegrass, Italian plant response rating",Italian ryegrass [1]; [7],75
same,"Ryegrass, Italian plant response rating",Italian ryegrass [1]; [8],90
same,Corn plant response rating,corn; [6],0
same,Corn plant response rating,corn; [7],15
same,Corn plant response rating,corn; [8],40
same,"Plant response rating, Corn",corn,5
same,"Crabgrass, Large plant response rating",large (Lg) crabgrass; [6],25
same,"Crabgrass, Large plant response rating",large (Lg) crabgrass; [7],100
same,"Crabgrass, Large plant response rating",large (Lg) crabgrass; [8],100
same,"Plant response rating, Crabgrass, Large",large (Lg) crabgrass,95
same,"Foxtail, Giant plant response rating",giant foxtail; [6],80
same,"Foxtail, Giant plant response rating",giant foxtail; [7],98
same,"Foxtail, Giant plant response rating",giant foxtail; [8],100
same,"Plant response rating, Foxtail, Giant",giant foxtail,85
same,Lambsquarters plant response rating,lambsquarters; [6],90
same,Lambsquarters plant response rating,lambsquarters; [7],100
same,Lambsquarters plant response rating,lambsquarters; [8],100
same,Morningglory plant response rating,morningglory; [6],0
same,Morningglory plant response rating,morningglory; [7],40
same,Morningglory plant response rating,morningglory; [8],100
same,"Nutsedge, Yellow plant response rating",yellow nutsedge; [6],0
same,"Nutsedge, Yellow plant response rating",yellow nutsedge; [7],15
same,"Nutsedge, Yellow plant response rating",yellow nutsedge; [8],55
same,Pigweed plant response rating,pigweed; [6],100
same,Pigweed plant response rating,pigweed; [7],100
same,Pigweed plant response rating,pigweed; [8],100
same,Ragweed plant response rating,ragweed [2]; [6],85
same,Ragweed plant response rating,ragweed [2]; [7],55
same,Ragweed plant response rating,ragweed [2]; [8],65
same,Soybean plant response rating,soybean; [6],5
same,Soybean plant response rating,soybean; [7],45
same,Soybean plant response rating,soybean; [8],55
same,Barnyardgrass plant response rating,barnyardgrass; [6],10
same,Barnyardgrass plant response rating,barnyardgrass; [7],100
same,Barnyardgrass plant response rating,barnyardgrass; [8],100
same,"Plant response rating, Barnyardgrass",barnyardgrass,55
same,Oilseed Rape plant response rating,oilseed rape; [6],70
same,Oilseed Rape plant response rating,oilseed rape; [7],98
same,Oilseed Rape plant response rating,oilseed rape; [8],95
same,Velvetleaf plant response rating,velvetleaf; [6],25
same,Velvetleaf plant response rating,velvetleaf; [7],80
same,Velvetleaf plant response rating,velvetleaf; [8],100
Fc1cnc(Oc2cccc(C(F)F)c2-n2cc(Cl)cn2)nc1 [Compound 94],Blackgrass plant response rating,blackgrass; [6],5
same,Blackgrass plant response rating,blackgrass; [7],90
same,Blackgrass plant response rating,blackgrass; [8],90
same,"Plant response rating, Blackgrass",blackgrass,20
same,"Ryegrass, Italian plant response rating",Italian ryegrass [1]; [6],0
same,"Ryegrass, Italian plant response rating",Italian ryegrass [1]; [7],10
same,"Ryegrass, Italian plant response rating",Italian ryegrass [1]; [8],50
same,"Plant response rating, Ryegrass, Italian",Italian ryegrass [1]; [9],0
same,Corn plant response rating,corn; [6],5
same,Corn plant response rating,corn; [7],5
same,Corn plant response rating,corn; [8],55
same,"Plant response rating, Corn",corn,5
same,"Crabgrass, Large plant response rating",large (Lg) crabgrass; [6],25
same,"Crabgrass, Large plant response rating",large (Lg) crabgrass; [7],100
same,"Crabgrass, Large plant response rating",large (Lg) crabgrass; [8],100
same,"Plant response rating, Crabgrass, Large",large (Lg) crabgrass,98
same,"Foxtail, Giant plant response rating",giant foxtail; [6],5
same,"Foxtail, Giant plant response rating",giant foxtail; [7],100
same,"Foxtail, Giant plant response rating",giant foxtail; [8],100
same,"Plant response rating, Foxtail, Giant",giant foxtail,65
same,Lambsquarters plant response rating,lambsquarters; [6],40
same,Lambsquarters plant response rating,lambsquarters; [7],100
same,Lambsquarters plant response rating,lambsquarters; [8],100
same,"Plant response rating, Lambsquarters",lambsquarters; [9],85
same,Morningglory plant response rating,morningglory; [6],0
same,Morningglory plant response rating,morningglory; [7],40
same,Morningglory plant response rating,morningglory; [8],90
same,"Plant response rating, Morningglory",morningglory; [9],30
same,"Nutsedge, Yellow plant response rating",yellow nutsedge; [6],0
same,"Nutsedge, Yellow plant response rating",yellow nutsedge; [7],55
same,"Nutsedge, Yellow plant response rating",yellow nutsedge; [8],65
same,"Plant response rating, Nutsedge, Yellow",yellow nutsedge; [9],0
same,Pigweed plant response rating,pigweed; [6],90
same,Pigweed plant response rating,pigweed; [7],100
same,Pigweed plant response rating,pigweed; [8],100
same,"Plant response rating, Pigweed",pigweed; [9],100
same,Ragweed plant response rating,ragweed [2]; [6],0
same,Ragweed plant response rating,ragweed [2]; [7],10
same,Ragweed plant response rating,ragweed [2]; [8],25
same,"Plant response rating, Ragweed",ragweed [2]; [9],0
same,Soybean plant response rating,soybean; [6],35
same,Soybean plant response rating,soybean; [7],85
same,Soybean plant response rating,soybean; [8],95
same,"Plant response rating, Soybean",soybean; [9],50
same,Barnyardgrass plant response rating,barnyardgrass; [6],5
same,Barnyardgrass plant response rating,barnyardgrass; [7],85
same,Barnyardgrass plant response rating,barnyardgrass; [8],100
same,"Plant response rating, Barnyardgrass",barnyardgrass,10
same,Oilseed Rape plant response rating,oilseed rape; [6],85
same,Oilseed Rape plant response rating,oilseed rape; [7],98
same,Oilseed Rape plant response rating,oilseed rape; [8],98
same,"Plant response rating, Oilseed Rape",oilseed rape; [9],98
same,Velvetleaf plant response rating,velvetleaf; [6],40
same,Velvetleaf plant response rating,velvetleaf; [7],100
same,Velvetleaf plant response rating,velvetleaf; [8],100
same,"Plant response rating, Velvetleaf",velvetleaf; [9],100
"Clc1cnc(Oc2ccccc2-n2cc(C3CC3)nn2)nc1 [Compound 160, 5-chloro-2-[2-(4-cyclopropyl-1H-1,2,3-triazol-1-yl)phenoxy]pyrimidine]",Ragweed plant response rating,"ragweed [3]; 1000 g ai/ha, 0 to 100 scale, 0 no effect, 100 complete control, approx. 10 days",100
same,"Plant response rating, Ragweed",ragweed [4]; 1000 g ai/ha,100
same,"Plant response rating, Ryegrass, Italian",Italian ryegrass [5]; 1000 g ai/ha,90
same,"Plant response rating, Galium",galium; 1000 g ai/ha,100
FCc1cccc(Oc2ncc(Cl)cn2)c1-n1cc(I)cn1 [Compound 245],"Plant response rating, Ragweed","ragweed [3]; 31 g ai/ha, 0 to 100 scale where 0 is no effect and 100 is complete control, visual, approximately 10 days",0
same,Ragweed plant response rating (0 to 100 scale),ragweed [3]; 125 g ai/ha,0
same,"Plant response rating, Ragweed",ragweed [4]; 31 g ai/ha,0
same,"Plant response rating, Ragweed",ragweed [4]; 125 g ai/ha,20
same,"Plant response rating, Ryegrass, Italian",Italian ryegrass [5]; 31 g ai/ha,0
same,"Plant response rating, Ryegrass, Italian",Italian ryegrass [5]; 125 g ai/ha,20
same,"Plant response rating, Galium",galium; 31 g ai/ha,100
same,"Plant response rating, Galium",galium; 125 g ai/ha,100
